Results as given in ChEMBL document CHEMBL1201862, “PubChem BioAssay data set” (2004).
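Following 48 hours of exposure in 96-well plates, responses at five concentrations were used to interpolate endpoints linearly. GI50 marks 50% less growth.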 Active and inactive are the calls of the source. Rule as the data show it: active = GI50 up to about 1.1 µM and inactive = higher.

Key:
Assay in all cases: NCI tumour cell line growth inhibition, 48 h
786-0 = test system: 786-0
A498 = test system: A498
A549 = test system: A549
ACHN = test system: ACHN
BT-549 = test system: BT-549
CAKI-1 = test system: CAKI-1
CCRF-CEM = test system: CCRF-CEM
COLO 205 = test system: COLO 205
DU-145 = test system: DU-145
EKVX = test system: EKVX
HCC 2998 = test system: HCC 2998
HCT-116 = test system: HCT-116
HCT-15 = test system: HCT-15
HL-60 = test system: HL-60
HOP-62 = test system: HOP-62
HOP-92 = test system: HOP-92
HT-29 = test system: HT-29
Hs-578T = test system: Hs-578T
IGROV-1 = test system: IGROV-1
K562 = test system: K562
KM12 = test system: KM12
LOX IMVI = test system: LOX IMVI
M14 = test system: M14
MCF7 = test system: MCF7
MDA-MB-231 = test system: MDA-MB-231
MDA-MB-435 = test system: MDA-MB-435
MDA-N = test system: MDA-N
MOLT-4 = test system: MOLT-4
Malme-3M = test system: Malme-3M
NCI-H226 = test system: NCI-H226
NCI-H23 = test system: NCI-H23
NCI-H460 = test system: NCI-H460
NCI-H522 = test system: NCI-H522
NCI/ADR-RES = test system: NCI/ADR-RES
OVCAR-3 = test system: OVCAR-3
OVCAR-4 = test system: OVCAR-4
OVCAR-5 = test system: OVCAR-5
OVCAR-8 = test system: OVCAR-8
PC-3 = test system: PC-3
RPMI-8226 = test system: RPMI-8226
SF-268 = test system: SF-268
SF-295 = test system: SF-295
SF-539 = test system: SF-539
SK-MEL-28 = test system: SK-MEL-28
SK-MEL-2 = test system: SK-MEL-2
SK-MEL-5 = test system: SK-MEL-5
SK-OV-3 = test system: SK-OV-3
SN12C = test system: SN12C
SNB-19 = test system: SNB-19
SNB-75 = test system: SNB-75
SR = test system: SR
SW-620 = test system: SW-620
T47D = test system: T47D
TK-10 = test system: TK-10
U-251 = test system: U-251
UACC-257 = test system: UACC-257
UACC-62 = test system: UACC-62
UO-31 = test system: UO-31
RXF 393 = test system: RXF 393

O=C(O)COc1cc(-c2ccccc2)nc2cc(F)ccc12
GI50 (786-0): > 100 µM (inactive) | GI50 (A498): > 100 µM (inactive) | GI50 (A549): > 100 µM (inactive) | GI50 (ACHN): > 100 µM (inactive) | GI50 (BT-549): > 100 µM (inactive) | GI50 (CAKI-1): > 100 µM (inactive) | GI50 (CCRF-CEM): > 100 µM (inactive) | GI50 (COLO 205): > 100 µM (inactive) | GI50 (DU-145): > 100 µM (inactive) | GI50 (EKVX): > 100 µM (inactive) | GI50 (HCC 2998): 60 µM (inactive) | GI50 (HCT-116): > 100 µM (inactive) | GI50 (HCT-15): > 100 µM | GI50 (HL-60): > 100 µM (inactive) | GI50 (HOP-62): > 100 µM (inactive) | GI50 (HOP-92): > 100 µM (inactive) | GI50 (HT-29): > 100 µM (inactive) | GI50 (Hs-578T): > 100 µM (inactive) | GI50 (IGROV-1): > 100 µM (inactive) | GI50 (K562): > 100 µM (inactive) | GI50 (KM12): > 100 µM (inactive) | GI50 (LOX IMVI): > 100 µM (inactive) | GI50 (M14): > 100 µM (inactive) | GI50 (MCF7): > 100 µM (inactive) | GI50 (MDA-MB-231): > 100 µM (inactive) | GI50 (MDA-MB-435): > 100 µM (inactive) | GI50 (MDA-N): > 100 µM (inactive) | GI50 (MOLT-4): > 100 µM (inactive) | GI50 (Malme-3M): > 100 µM (inactive) | GI50 (NCI-H226): > 100 µM (inactive) | GI50 (NCI-H23): > 100 µM (inactive) | GI50 (NCI-H460): > 100 µM (inactive) | GI50 (NCI-H522): > 100 µM (inactive) | GI50 (NCI/ADR-RES): > 100 µM (inactive) | GI50 (OVCAR-3): > 100 µM (inactive) | GI50 (OVCAR-4): > 100 µM (inactive) | GI50 (OVCAR-5): > 100 µM (inactive) | GI50 (OVCAR-8): > 100 µM (inactive) | GI50 (PC-3): > 100 µM (inactive) | GI50 (RPMI-8226): > 100 µM (inactive) | GI50 (SF-268): > 100 µM (inactive) | GI50 (SF-295): > 100 µM (inactive) | GI50 (SF-539): > 100 µM (inactive) | GI50 (SK-MEL-28): > 100 µM (inactive) | GI50 (SK-MEL-2): > 100 µM (inactive) | GI50 (SK-MEL-5): > 100 µM (inactive) | GI50 (SK-OV-3): > 100 µM (inactive) | GI50 (SN12C): > 100 µM (inactive) | GI50 (SNB-19): > 100 µM (inactive) | GI50 (SNB-75): > 100 µM (inactive) | GI50 (SR): > 100 µM (inactive) | GI50 (SW-620): > 100 µM (inactive) | GI50 (T47D): > 100 µM (inactive) | GI50 (TK-10): 0.375 µM (active) | GI50 (U-251): > 100 µM (inactive) | GI50 (UACC-257): > 100 µM (inactive) | GI50 (UACC-62): > 100 µM (inactive) | GI50 (UO-31): 64.7 µM (inactive)

O=CNc1ccc2c(c1)C(=O)c1ccccc1-2
GI50 (786-0): 42.9 µM (inactive) | GI50 (A498): 90.2 µM (inactive) | GI50 (A549): > 100 µM (inactive) | GI50 (ACHN): > 100 µM (inactive) | GI50 (BT-549): > 100 µM (inactive) | GI50 (CAKI-1): > 100 µM (inactive) | GI50 (CCRF-CEM): 41.2 µM (inactive) | GI50 (COLO 205): 67.5 µM (inactive) | GI50 (DU-145): 57.8 µM (inactive) | GI50 (EKVX): 4.69 µM (inactive) | GI50 (HCC 2998): > 100 µM (inactive) | GI50 (HCT-116): 37.8 µM (inactive) | GI50 (HCT-15): 59.7 µM | GI50 (HL-60): 49.1 µM (inactive) | GI50 (HOP-62): 90.2 µM (inactive) | GI50 (HOP-92): 72.8 µM (inactive) | GI50 (HT-29): 49 µM (inactive) | GI50 (Hs-578T): 24.1 µM (inactive) | GI50 (IGROV-1): 44.1 µM (inactive) | GI50 (K562): 81.3 µM (inactive) | GI50 (KM12): 68.2 µM (inactive) | GI50 (LOX IMVI): 48.8 µM (inactive) | GI50 (M14): > 100 µM (inactive) | GI50 (MCF7): 20.8 µM (inactive) | GI50 (MDA-MB-231): > 100 µM (inactive) | GI50 (MDA-MB-435): > 100 µM (inactive) | GI50 (MDA-N): > 100 µM (inactive) | GI50 (MOLT-4): 44.7 µM (inactive) | GI50 (NCI-H226): > 100 µM (inactive) | GI50 (NCI-H23): > 100 µM (inactive) | GI50 (NCI-H460): 46 µM (inactive) | GI50 (NCI-H522): 60.3 µM (inactive) | GI50 (NCI/ADR-RES): > 100 µM (inactive) | GI50 (OVCAR-3): > 100 µM (inactive) | GI50 (OVCAR-4): > 100 µM (inactive) | GI50 (OVCAR-5): > 100 µM (inactive) | GI50 (OVCAR-8): 50.9 µM (inactive) | GI50 (PC-3): 68.2 µM (inactive) | GI50 (RPMI-8226): 61.4 µM (inactive) | GI50 (RXF 393): 65.2 µM (inactive) | GI50 (SF-268): 47.3 µM (inactive) | GI50 (SF-295): > 100 µM (inactive) | GI50 (SF-539): 75.5 µM (inactive) | GI50 (SK-MEL-28): > 100 µM (inactive) | GI50 (SK-MEL-2): > 100 µM (inactive) | GI50 (SK-MEL-5): > 100 µM (inactive) | GI50 (SK-OV-3): > 100 µM (inactive) | GI50 (SN12C): 30.3 µM (inactive) | GI50 (SNB-19): > 100 µM (inactive) | GI50 (SNB-75): 86.3 µM (inactive) | GI50 (SR): 37.2 µM (inactive) | GI50 (SW-620): 49.3 µM (inactive) | GI50 (T47D): 76.9 µM (inactive) | GI50 (TK-10): > 100 µM (inactive) | GI50 (U-251): 65 µM (inactive) | GI50 (UACC-257): > 100 µM (inactive) | GI50 (UACC-62): 49.9 µM (inactive) | GI50 (UO-31): 47.3 µM (inactive)
